The values below come from paper PMC9841524, “Structure-Based Rational Design of Small α-Helical Peptides with Broad-Spectrum Activity against Multidrug-Resistant Pathogens” (Journal of Medicinal Chemistry, 2022).

Series [1] concerns K. pneumonia (ATCC BAA-2470). Particulars: Gram-negative, carbapenem-resistant; CLSI microdilution, CAMHB, 37 °C, 24 h; highest MIC of three independent experiments in triplicate. Summed up: (§1)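 In this CLSI-recommended assay, peptides were serially diluted twofold and combined with bacteria at 10^6 CFU/mL in cation-adjusted Mueller Hinton Broth.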
Series [2] deals with Bacillus cereus (ATCC 13061). Summed up: as §1
Series [3] is described as follows: CD spectroscopy, helicity.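 On % of helicity induced by Liposomes: share of the total helicity with liposomes gained over the same peptide in PBS.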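 On % of helicity induced by TFE: share of the total helicity in TFE gained over the same peptide in PBS.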 Particulars: for [θ]222 mean residue molar ellipticity, TFE / [θ]222 mean residue molar ellipticity, Liposomes / [θ]222 mean residue molar ellipticity, PBS: CD at 222 nm, 25 °C; for [θ]222 mean residue molar ellipticity, TFE: aqueous buffer containing 50% TFE; for [θ]222 mean residue molar ellipticity, Liposomes / Δ[θ]222 induced by Liposomes: bacterial membrane mimicking liposomes; for [θ]222 mean residue molar ellipticity, Liposomes: peptide:lipid molar ratio 1:1.05; for [θ]222 mean residue molar ellipticity, PBS: phosphate buffer saline pH 7.0; for Δ[θ]222 induced by TFE / Δ[θ]222 induced by Liposomes: difference to PBS; for Δ[θ]222 induced by TFE: 50% TFE; for % of helicity induced by TFE: increase in molar ellipticity at 222 nm in the presence of 50% TFE; for % of helicity induced by Liposomes: increase in molar ellipticity at 222 nm in the presence of liposomes. On the set-up: key to Δ[θ]222 induced by TFE / Δ[θ]222 induced by Liposomes: mean residue molar ellipticity, mdeg cm2/(dmol × res). In kind it is physicochemical. Summed up:
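Spectra recorded at 25 °C, 1 mm cell, 190–260 nm, averaged over three scans in 10 mM sodium phosphate (pH 7.2), 50% TFE, or bacterial-mimic liposomes (75 μM lipid), baseline-subtracted. Mean residue molar ellipticity at 222 nm derived; % helicity induced is the percentage increase at 222 nm in TFE or liposomes.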

For series [4], the system named is human lung fibroblast cells (MRC-5), human embryonic kidney cells (HEK-293), human hepatic cells (HepaRG), HeKa cells. The series is described as follows: 24 h cell viability assay (MTS). In kind it is cell-based. Particulars: triplicate. As to the method:
The in vitro cytotoxicity of 8a and 8b was evaluated using human lung fibroblast cells (MRC-5), human embryonic kidney cells (HEK-293), human hepatic cells (HepaRG), and human epidermal keratinocytes (HEKa). Cells were seeded at 10,000 per well in 0.1 mL of media in 96-well plates 24 h prior to the experiment. Lung and kidney cells were seeded in DMEM medium containing FBS (10%). Liver cells were seeded in William’s E medium with the GlutaMAX supplement. Epidermal keratinocytes were seeded in a Dermal Cell Basal medium supplemented with a keratinocyte growth kit. The peptides were added to each well in triplicates at a variable concentration of 10–250 μg/mL and incubated for 24h at 37 °C in a humidified atmosphere of 5% CO2. After the incubation period, the MTS solution (20 μL) was added to each well. Then, the cells were incubated for 2 h at 37 °C, and the cell viability was determined by measuring the absorbance at 490 nm using a SpectraMaxM2 microplate spectrophotometer. The percentage of cell survival was calculated as [(OD value of cells treated with the test mixture of compounds) – (OD value of culture medium)]/[(OD value of control cells) – (OD value of culture medium)] × 100%.

For series [5], the system named is human red blood cells (hRBCs). Briefly: Hemolytic assay. In kind it is cell-based. The conditions noted are these: for decrease in the hemolytic activity on replacing Arg with Lys: 7b vs 7a, 8b vs 8a, HC50, hRBC; for HC50 (concentration at which 50% hemolysis was observed): 2 h, 37 °C. Summed up: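 Peptides in 2-fold serial dilutions mixed 1:1 with 4% hRBC suspension in PBS and held 2 h at 37 °C unshaken. Hemoglobin release in supernatant read at 567 nm; % hemolysis scaled between PBS (0%) and 1% Triton X-100 (100%).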

Where [6] appears, read: all tested cells (MRC-5, HEK-293, HepaRG, HeKa), MTS.
The mark [7] stands for this setting: value in parentheses (μM), hRBC 4% in PBS, 567 nm.
The mark [8] stands for this setting: hRBC suspension 4% in PBS, hemoglobin release at 567 nm, 1% Triton X-100 = 100%.
Where [9] appears, read: Gram-positive, CLSI microdilution, CAMHB, 37 °C, 24 h, highest MIC of three independent experiments in triplicate.

Read-outs that look alike come from different tables or passages of the source. Where no end group is shown, it is not given here.

Take KWLKKWLKWWKK-NH2 [8b]: in series [1], the “MIC, K. pneumonia (ATCC BAA-2470)” value came to 12.5 µg/mL. Moreover, the “MIC, Bacillus cereus (ATCC 13061)” value in series [2] (ATCC 13061, 24 h) worked out at 3.1 µg/mL. Besides, in series [3], the “[θ]222 mean residue molar ellipticity, TFE” value is -15887 mdeg cm2/(dmol × res); the “[θ]222 mean residue molar ellipticity, Liposomes” value is reported as -19313 mdeg cm2/(dmol × res); the “[θ]222 mean residue molar ellipticity, PBS” value is -6387 mdeg cm2/(dmol × res); the “Δ[θ]222 induced by TFE” value is -9499. Besides, in series [3], the “Δ[θ]222 induced by Liposomes” value is given as -12926, the “% of helicity induced by TFE” value was 59.79% and the “% of helicity induced by Liposomes” value was 66.92%. Besides, the “cell viability at 250 μg/mL, except for skin cells” value in series [4] (MRC-5, HEK-293, HepaRG, MTS) was “above 60%”. The “cell viability at 50 μg/mL” value in series [4] (setting [6]) is reported as “above 75%”. Moreover, the “decrease in the hemolytic activity on replacing Arg with Lys” value in series [5] is listed as “approximately 5 fold”. Also, in series [5] (abstract, hRBC), the HC50 (as a rule, the concentration giving 50% haemolysis) turned out to be 280 µg/mL. The “HC50 (concentration at which 50% hemolysis was observed)” value in series [5] (setting [7]) is 159.34 µM.

On to KWIKKWIKWWKK-NH2 [7b], for which the “MIC, K. pneumonia (ATCC BAA-2470)” value in series [1] is 25 µg/mL. In addition, the “MIC, Bacillus cereus (ATCC 13061)” value in series [2] (ATCC 13061, 24 h) stood at 6.2 µg/mL. Further, in series [3], the “[θ]222 mean residue molar ellipticity, TFE” value is recorded as -10800 mdeg cm2/(dmol × res); the “[θ]222 mean residue molar ellipticity, Liposomes” value is reported as -12345 mdeg cm2/(dmol × res); the “[θ]222 mean residue molar ellipticity, PBS” value was -3016 mdeg cm2/(dmol × res); the “Δ[θ]222 induced by TFE” value is -7784. For the same molecule, in series [3], the “Δ[θ]222 induced by Liposomes” value was -9328, the “% of helicity induced by TFE” value is recorded as 72.06% and the “% of helicity induced by Liposomes” value was determined as 75.56%. Besides, the “decrease in the hemolytic activity on replacing Arg with Lys” value in series [5] was “approximately 5 fold”. Moreover, the “HC50 (concentration at which 50% hemolysis was observed)” value in series [5] (setting [8]) amounted to 460 µg/mL. Also, in series [5] (setting [7]), the “HC50 (concentration at which 50% hemolysis was observed)” value turned out to be 261.77 µM.

RWLRRWLRWWRR-NH2 [8a]: the “MIC, K. pneumonia (ATCC BAA-2470)” value in series [1] was 12.5 µg/mL. For the same molecule, the “MIC, Bacillus cereus (ATCC 13061)” value in series [2] (ATCC 13061, 24 h) came out at 6.2 µg/mL. Also, in series [3], the “[θ]222 mean residue molar ellipticity, TFE” value is recorded as -10811 mdeg cm2/(dmol × res); the “[θ]222 mean residue molar ellipticity, Liposomes” value is -15616 mdeg cm2/(dmol × res); the “[θ]222 mean residue molar ellipticity, PBS” value is recorded as -4794 mdeg cm2/(dmol × res); the “Δ[θ]222 induced by TFE” value is given as -6017. In series [3], the “Δ[θ]222 induced by Liposomes” value was -10822, the “% of helicity induced by TFE” value came out at 55.65% and the “% of helicity induced by Liposomes” value is reported as 69.30%. For the same molecule, in series [4] (setting [6]), the “cell viability at 50 μg/mL” value is listed as “below 60%” and the “cell viability at 250 μg/mL” value is “below 30%”. Also, the “HC50 (concentration at which 50% hemolysis was observed)” value in series [5] (setting [8]) was determined as 45 µg/mL. The “HC50 (concentration at which 50% hemolysis was observed)” value in series [5] (setting [7]) came out at 23.37 µM.

Regarding `CCCCCCCCCC(=O)N[C@@H](Cc1c[nH]c2ccccc12)C(=O)N[C@H](CC(N)=O)C(=O)N[C@@H](CC(=O)O)C(=O)N[C@@H]1C(=O)NCC(=O)N[C@@H](CCCN)C(=O)N[C@@H](CC(=O)O)C(=O)N[C@H](C)C(=O)N[C@@H](CC(=O)O)C(=O)NCC(=O)N[C@H](CO)C(=O)N[C@@H]([C@H](C)CC(=O)O)C(=O)N[C@@H](CC(=O)c2ccccc2N)C(=O)O[C@@H]1C` [daptomycin, reference compound], the “MIC, Bacillus cereus (ATCC 13061)” value in series [2] (setting [9]) is 1.5 µg/mL. Besides, the “cytotoxicity against kidney and liver cells” value in series [4] (HEK293 and HPRGC10 (HepaRG), up to 250 μg/mL) is on record as “negligible cytotoxicity”.

With RWIRRWIRWWRR-NH2 [7a], the “MIC, K. pneumonia (ATCC BAA-2470)” value in series [1] was determined as 12.5 µg/mL. Further, in series [2] (setting [9]), the “MIC, Bacillus cereus (ATCC 13061)” value came to 12.5 µg/mL. Further, in series [3], the “[θ]222 mean residue molar ellipticity, TFE” value was -8205 mdeg cm2/(dmol × res); the “[θ]222 mean residue molar ellipticity, Liposomes” value is -11307 mdeg cm2/(dmol × res); the “[θ]222 mean residue molar ellipticity, PBS” value is given as -2471 mdeg cm2/(dmol × res); the “Δ[θ]222 induced by TFE” value is given as -5734. For the same molecule, in series [3], the “Δ[θ]222 induced by Liposomes” value is given as -8836, the “% of helicity induced by TFE” value is given as 69.88% and the “% of helicity induced by Liposomes” value is reported as 78.14%. Moreover, the “HC50 (concentration at which 50% hemolysis was observed)” value in series [5] (setting [8]) amounted to 90 µg/mL. The “HC50 (concentration at which 50% hemolysis was observed)” value in series [5] (setting [7]) turned out to be 46.74 µM.
